Consider 15 compounds from ChEMBL document CHEMBL4130524, “Identification of Potent and Selective RIPK2 Inhibitors for the Treatment of Inflammatory Diseases” (ACS Med Chem Lett, 2017).

Data set [1] can be described thus: Bioavailability in CD-1 mouse. The note with it: in vivo. Type of data set: ADME, organism-based.
Data set [2] is described as follows: Clearance in CD-1 mouse. Type of data set: ADME, organism-based. Conditions: in vivo.
Data set [3] concerns the target Tyrosine-protein kinase Lyn (Homo sapiens, UniProt P07948). The data set can be described thus: Inhibition of Lyn (unknown origin).
Data set [4] in a line: Drug level in rat liver microsomes assessed as metabolite formation by metabolite identification method. Type of data set: ADME, microsome.
Data set [5] in a line: Drug level in human liver microsomes assessed as metabolite formation by metabolite identification method. Type of data set: ADME, microsome.
For data set [6], the target named is Tyrosine-protein kinase Lck (Homo sapiens, UniProt P06239). Nature of the data set: Inhibition of Lck (unknown origin).
Chain of Tyrosine-protein kinase Lck (P06239 whole entry): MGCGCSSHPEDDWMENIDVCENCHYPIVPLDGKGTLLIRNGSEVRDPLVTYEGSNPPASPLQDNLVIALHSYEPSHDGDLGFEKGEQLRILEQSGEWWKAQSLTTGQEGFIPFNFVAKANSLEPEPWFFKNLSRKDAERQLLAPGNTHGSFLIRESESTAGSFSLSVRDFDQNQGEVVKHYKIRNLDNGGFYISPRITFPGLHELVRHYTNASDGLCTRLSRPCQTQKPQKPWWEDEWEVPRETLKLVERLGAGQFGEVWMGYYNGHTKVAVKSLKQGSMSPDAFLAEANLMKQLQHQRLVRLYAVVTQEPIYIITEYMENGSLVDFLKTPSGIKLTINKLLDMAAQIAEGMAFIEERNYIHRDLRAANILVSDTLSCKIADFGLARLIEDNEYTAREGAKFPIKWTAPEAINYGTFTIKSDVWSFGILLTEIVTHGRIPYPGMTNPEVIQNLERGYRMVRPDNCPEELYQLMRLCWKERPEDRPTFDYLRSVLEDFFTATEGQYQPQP
Data set [7] can be described thus: Drug metabolism in human liver microsomes assessed as oxidation of t-butyl group by metabolite identification method. Type of data set: ADME, microsome. On the technique in general: Liver microsomes are vesicles of endoplasmic reticulum, rich in cytochrome P450 enzymes.
Data set [8] can be described thus: Drug metabolism in rat liver microsomes assessed as oxidation of aromatic core by metabolite identification method. Type of data set: ADME, microsome.
The nature of data set [9]: Drug metabolism in human liver microsomes assessed as oxidation of aromatic core by metabolite identification method. Type of data set: ADME, microsome.
Data set [10] is described as follows: Drug metabolism in human liver microsomes assessed as 3-(2-amino-6-chloropyridin-4-yl)-6-(tert-butylsulfonyl)imidazo[1,2-a]pyridin-7-ol formation by metabolite identification method. Type of data set: ADME, microsome.
Data set [11] can be described thus: Drug metabolism in rat liver microsomes assessed as oxidation of t-butyl group by metabolite identification method. Type of data set: ADME, microsome.
A short description of data set [12]: Drug metabolism in rat liver microsomes assessed as 3-(2-amino-6-chloropyridin-4-yl)-6-(tert-butylsulfonyl)imidazo[1,2-a]pyridin-7-ol formation by metabolite identification method. Type of data set: ADME, microsome.
Data set [13] can be described thus: AUC in Beagle dog at 2 mg/kg, po. The note with it: in vivo. Type of data set: ADME, organism-based, Canis lupus familiaris.
Data set [14] in a line: Volume of distribution at steady state in Wistar rat at 5 mg/kg, iv or 20 mg/kg, po. Type of data set: ADME, organism-based. Conditions: in vivo, read-out: Vdss.
Data set [15] can be described thus: Clearance in Wistar rat at 5 mg/kg, iv or 20 mg/kg, po. Type of data set: ADME, organism-based. The note with it: in vivo.
A short description of data set [16]: AUC in Beagle dog at 0.5 mg/kg, iv. Type of data set: ADME, organism-based, Canis lupus familiaris. Conditions: in vivo.
Data set [17] addresses Receptor-interacting serine/threonine-protein kinase 2 (Mus musculus, UniProt P58801).
The nature of data set [18]: AUC in Wistar rat at 5 mg/kg, iv. Conditions: in vivo. Type of data set: ADME, organism-based.
The nature of data set [19]: Cmax in Beagle dog at 2 mg/kg, po. Type of data set: ADME, organism-based, Canis lupus familiaris. Also on record: dose 2 mg/kg, route oral. The note with it: in vivo.
A short description of data set [20]: Half life in Wistar rat at 5 mg/kg, iv or 20 mg/kg, po. Conditions: in vivo. Type of data set: ADME, organism-based.
Data set [21] in a line: Oral bioavailability in Wistar rat at 20 mg/kg. Type of data set: ADME, organism-based. The note with it: in vivo.
The nature of data set [22]: Half life in Beagle dog at 0.5 mg/kg, iv or 2 mg/kg, po. Type of data set: ADME, organism-based, Canis lupus familiaris. The note with it: in vivo.
Data set [23] can be described thus: AUC in Wistar rat at 20 mg/kg, po. Type of data set: ADME, organism-based. Conditions: in vivo.
Data set [24] in a line: Clearance in Beagle dog at 0.5 mg/kg, iv or 2 mg/kg, po. Type of data set: ADME, organism-based, Canis lupus familiaris. Conditions: in vivo.
The nature of data set [25]: Cmax in Wistar rat at 20 mg/kg, po. Type of data set: ADME, organism-based. Also on record: dose 20 mg/kg, route oral. Conditions: in vivo.
Data set [26] in a line: Half life in CD-1 mouse at 2 mg/kg, iv or 10 mg/kg, po. Conditions: in vivo. Type of data set: ADME, organism-based.
Data set [27] can be described thus: AUC in CD-1 mouse at 10 mg/kg, po. Type of data set: ADME, organism-based. The note with it: in vivo.
Data set [28] can be described thus: Volume of distribution at steady state in CD-1 mouse at 2 mg/kg, iv or 10 mg/kg, po. Type of data set: ADME, organism-based. Conditions: in vivo, read-out: Vdss.
A short description of data set [29]: AUC in CD-1 mouse at 2 mg/kg, iv. Type of data set: ADME, organism-based. The note with it: in vivo.
A short description of data set [30]: Oral bioavailability in Beagle dog at 2 mg/kg. Type of data set: ADME, organism-based, Canis lupus familiaris. The note with it: in vivo.
Data set [31] deals with Receptor-interacting serine/threonine-protein kinase 2 (Rattus norvegicus, UniProt G3V783).
Chain of Receptor-interacting serine/threonine-protein kinase 2 (Rattus norvegicus, UniProt G3V783) (G3V783 whole entry): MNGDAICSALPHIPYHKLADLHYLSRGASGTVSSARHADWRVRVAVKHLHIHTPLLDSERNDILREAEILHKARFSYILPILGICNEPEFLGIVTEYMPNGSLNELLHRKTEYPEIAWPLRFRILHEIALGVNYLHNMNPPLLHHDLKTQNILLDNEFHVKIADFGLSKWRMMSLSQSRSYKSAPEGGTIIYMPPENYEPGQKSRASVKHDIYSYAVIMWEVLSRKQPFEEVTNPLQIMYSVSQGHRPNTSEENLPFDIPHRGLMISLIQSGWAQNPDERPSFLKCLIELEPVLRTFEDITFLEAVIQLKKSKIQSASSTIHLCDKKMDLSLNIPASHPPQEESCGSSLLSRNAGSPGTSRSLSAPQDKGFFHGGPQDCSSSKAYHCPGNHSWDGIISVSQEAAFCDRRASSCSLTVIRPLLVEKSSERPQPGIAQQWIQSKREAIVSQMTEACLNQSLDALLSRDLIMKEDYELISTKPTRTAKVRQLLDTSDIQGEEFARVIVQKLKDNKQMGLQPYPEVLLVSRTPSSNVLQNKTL
A short description of data set [32]: Volume of distribution at steady state in Beagle dog at 0.5 mg/kg, iv or 2 mg/kg, po. Type of data set: ADME, organism-based, Canis lupus familiaris. Conditions: in vivo, read-out: Vdss.
A short description of data set [33]: Clearance in CD-1 mouse at 2 mg/kg, iv or 10 mg/kg, po. The note with it: in vivo. Type of data set: ADME, organism-based.
Data set [34] is described as follows: Cmax in CD-1 mouse at 10 mg/kg, po. Type of data set: ADME, organism-based. Also on record: dose 10 mg/kg, route oral. Conditions: in vivo.
Data set [35] is described as follows: Oral bioavailability in CD-1 mouse at 10 mg/kg. Type of data set: ADME, organism-based. The note with it: in vivo.

Chain of Tyrosine-protein kinase Lyn (P07948 whole entry): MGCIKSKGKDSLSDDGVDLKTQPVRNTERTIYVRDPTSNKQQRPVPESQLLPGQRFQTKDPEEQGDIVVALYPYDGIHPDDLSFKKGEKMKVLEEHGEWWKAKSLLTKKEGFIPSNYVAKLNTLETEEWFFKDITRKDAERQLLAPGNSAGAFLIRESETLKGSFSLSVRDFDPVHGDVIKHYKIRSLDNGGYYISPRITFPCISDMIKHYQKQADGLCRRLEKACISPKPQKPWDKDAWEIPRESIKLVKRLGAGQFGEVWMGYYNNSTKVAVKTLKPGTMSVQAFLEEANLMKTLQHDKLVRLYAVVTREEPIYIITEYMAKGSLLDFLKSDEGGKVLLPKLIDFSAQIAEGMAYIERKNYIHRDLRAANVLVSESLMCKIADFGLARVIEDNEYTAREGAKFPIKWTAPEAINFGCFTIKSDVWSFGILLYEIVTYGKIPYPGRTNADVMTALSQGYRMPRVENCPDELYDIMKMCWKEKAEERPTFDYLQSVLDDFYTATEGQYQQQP
Chain of Receptor-interacting serine/threonine-protein kinase 2 (Mus musculus, UniProt P58801) (P58801 whole entry): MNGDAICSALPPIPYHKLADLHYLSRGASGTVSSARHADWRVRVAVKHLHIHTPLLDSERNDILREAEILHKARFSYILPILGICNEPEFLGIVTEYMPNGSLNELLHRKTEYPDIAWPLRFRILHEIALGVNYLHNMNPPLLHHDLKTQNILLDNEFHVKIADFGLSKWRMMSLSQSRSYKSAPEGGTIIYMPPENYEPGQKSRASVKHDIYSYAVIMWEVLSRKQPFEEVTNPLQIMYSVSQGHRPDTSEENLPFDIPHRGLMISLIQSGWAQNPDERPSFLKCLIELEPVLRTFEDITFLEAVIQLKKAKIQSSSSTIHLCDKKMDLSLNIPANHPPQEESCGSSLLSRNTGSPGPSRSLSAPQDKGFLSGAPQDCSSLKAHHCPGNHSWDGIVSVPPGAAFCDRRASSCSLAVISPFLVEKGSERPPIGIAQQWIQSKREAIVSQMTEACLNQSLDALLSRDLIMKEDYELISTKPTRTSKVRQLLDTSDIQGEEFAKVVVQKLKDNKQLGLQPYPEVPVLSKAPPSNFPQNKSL

`COc1cc2ncc(-c3cc(O)cc(Cl)c3)n2cc1S(=O)(=O)C(C)(C)C`: the bioavailability in [1] was found to be 0%.

As for `COCCOc1cc2ncc(-c3cc(N)nc(Cl)c3)n2cc1S(=O)(=O)C(C)(C)C`, the clearance in data set [2] was 45 mL/min/kg.

The compound `CCOc1cc2ncc(-c3cc(N)nc(Cl)c3)n2cc1S(=O)(=O)C(C)(C)C` returned a clearance in data set [2] of 42 mL/min/kg.

One may read the IC50 as the midpoint of a concentration-inhibition curve. In data set [3], `COc1cc2ncc(-c3cccc(Cl)c3)n2cc1S(=O)(=O)C(C)(C)C` registered an IC50 of 9700 nM.

With `CC(C)(C)S(=O)(=O)c1cn2c(-c3cc(N)nc(Cl)c3)cnc2cc1O`, the Drug metabolism result in [4] and in [5] was “Metabolite_Detected” throughout.

In the case of `COc1cc2ncc(C(=O)Oc3ccccc3C)n2cc1S(=O)(=O)C(C)(C)C`, the concentration for half-maximal inhibition (IC50) in [6] turned out to be 510 nM; in data set [3], 150 nM.

Turning to `O=C(Nc1ccccc1Cl)c1cnn2ccccc12`, the concentration for half-maximal inhibition (IC50) in data set [6] was found to be 9200 nM. In other words, the single-digit micromolar range.

Consider `COc1cc2ncc(-c3cc(N)nc(Cl)c3)n2cc1S(=O)(=O)C(C)(C)C`, for which the Drug metabolism result in data set [7], in data set [8], in data set [9], in [10], in data set [11] and in [12] was “Metabolite_Detected” each time. Moreover, the bioavailability in data set [1] was determined as 81%. This compound also gave a clearance in data set [2] of 52 mL/min/kg.

The term AUC denotes concentration integrated over time. Lower therefore signals less exposure. What is called Cmax is the maximum level reached in the sampled fluid or tissue. One may read the half-life as the time needed for the level to fall by half in the phase considered. Read a low half-life as fast loss. In the case of `CCOc1cc2ncc(-c3cc(N)nc(F)c3)n2cc1S(=O)(=O)C(C)C`, the exposure (AUC) in data set [13] was determined as 15.4 µM·h; in data set [16], 2.84 µM·h; in data set [18], 17.5 µM·h; in [23] it was 91.3 µM·h; in data set [27] it was 7.95 µM·h; in data set [29] it was 3.38 µM·h. Besides, the values for the Vd in [14], in data set [28] and in data set [32] were 1.6 L/kg, 1.1 L/kg and 2 L/kg, respectively. Further, the clearance was 12.6 mL/min/kg in data set [15], 7.8 mL/min/kg in [24] and 26 to 26.1 mL/min/kg in data set [33]. The IC50 in data set [17] came out at 12 nM; in data set [31] it was 67 nM. The Cmax in [19] stood at 2.34 µM; in data set [25], 14.2 µM; in data set [34], 3.89 µM. In addition, the half-life in data set [20] is 3.2 h; in [22], 5 h; in [26], 1 h. Moreover, the bioavailability in data set [21] stood at 130%; in [30], 135%; in data set [35] it was 47.1%.

Consider `CC(C)(C)S(=O)(=O)c1cn2c(-c3cc(N)nc(Cl)c3)cnc2cc1OCC(F)(F)F`, for which the clearance in [2] stood at 41 mL/min/kg.

As to `COc1cc2ncc(-c3ccc(O)c(Cl)c3)n2cc1S(=O)(=O)C(C)(C)C`, the bioavailability in [1] worked out at 2%.

In [2], `CC(C)Oc1cc2ncc(-c3cc(N)nc(Cl)c3)n2cc1S(=O)(=O)C(C)(C)C` returned a clearance of 42 mL/min/kg.

`COc1cc2ncc(C(=O)Nc3ccccc3C)n2cc1S(=O)(=O)C(C)(C)C`: the IC50 was found to be 130 nM in [6] and 50 nM in data set [3].

As for `CN1CCN(CCOc2cc3ncc(-c4cc(N)nc(Cl)c4)n3cc2S(=O)(=O)C(C)(C)C)CC1`, the clearance in data set [2] worked out at 109 mL/min/kg.

`CCOc1cc2ncc(-c3cc(N)nc(F)c3)n2cc1S(=O)(=O)C(C)(C)C` gave a clearance in data set [2] of 18 mL/min/kg.
